Values joined by “and” are separate entries in the source; they are usually repeats but may differ in a detail not shown here. Identical values can stand only once.
System: Long Evans rats
Experiment: Behavioral satiety sequence (BSS)
Format: in vivo, Long Evans rat
Settings: for BSS scoring A (active), Time Bin 13 (60-65 TOTAL), AVG / BSS scoring A (active), Time Bin 14 (65-70 TOTAL), AVG / BSS scoring A (active), Time Bin 15 (70-75 TOTAL), AVG / BSS scoring A (active), Time Bin 16 (75-80 TOTAL), AVG / BSS scoring A (active), Time Bin 17 (80-85 TOTAL), AVG / BSS scoring A (active), Time Bin 18 (85-90 TOTAL), AVG / BSS scoring E (eating/drinking), Time Bin 13 (60-65 TOTAL), AVG / BSS scoring E (eating/drinking), Time Bin 14 (65-70 TOTAL), AVG / BSS scoring E (eating/drinking), Time Bin 15 (70-75 TOTAL), AVG / BSS scoring E (eating/drinking), Time Bin 16 (75-80 TOTAL), AVG / BSS scoring E (eating/drinking), Time Bin 17 (80-85 TOTAL), AVG / BSS scoring E (eating/drinking), Time Bin 18 (85-90 TOTAL), AVG / BSS scoring G (grooming), Time Bin 13 (60-65 TOTAL), AVG / BSS scoring G (grooming), Time Bin 14 (65-70 TOTAL), AVG / BSS scoring G (grooming), Time Bin 15 (70-75 TOTAL), AVG / BSS scoring G (grooming), Time Bin 16 (75-80 TOTAL), AVG / BSS scoring G (grooming), Time Bin 17 (80-85 TOTAL), AVG / BSS scoring G (grooming), Time Bin 18 (85-90 TOTAL), AVG / BSS scoring R (resting), Time Bin 13 (60-65 TOTAL), AVG / BSS scoring R (resting), Time Bin 14 (65-70 TOTAL), AVG / BSS scoring R (resting), Time Bin 15 (70-75 TOTAL), AVG / BSS scoring R (resting), Time Bin 16 (75-80 TOTAL), AVG / BSS scoring R (resting), Time Bin 17 (80-85 TOTAL), AVG / BSS scoring R (resting), Time Bin 18 (85-90 TOTAL), AVG: AVG of animals LT-1 to LT-12
Description: The Behavioural Satiety Sequence (BSS) is a technique used to evaluate physiological satiety. It is based on the expression of a sequence of behaviors including eating, grooming, locomotor activity, followed by resting, which are typically observed in rodents post-ingestion (Halford et al, 1998, Pharmacology Biochemistry and Behaviour. 61(2): 159-168). The BSS is a widely used model for determining the effects of novel pharmaceuticals on food intake and measures of satiety in rodents (Oliveira et al, 2011, Revista de Nutrição. 24(4) 619-628), and to discriminate the cause of reduced food intake following pharmacological manipulation. For example, treatments that may reduce food intake by non-specific mechanisms, such as immobility, malaise, and taste adulteration, will disrupt this sequence (Halford et al, 1998, Pharmacology Biochemistry and Behaviour. 61(2): 159-168).
Specifically, 12 male Long-Evans rats were food-deprived for 22 h with a 2 h feeding period each day. Rats were trained to consume daily food during the 2 h period over 25 days. The testing phase was initiated once the rats consistently consumed 16-18 g of food per day with ≤10% variance in amount of feed consumed. Feeding took place in designated individual boxes in a quiet room separate from the housing room. Continuous remote monitoring via video camera during feeding was used to assess the BSS. Food consumption was measured by weighing the total available food before and after the 2 h feeding window, correcting for spillage. Lorcaserin (1 mg/kg) was included as a reference control (Higgins et al, 2011, Neuropsychopharmacology. 37(5): 1177-1191). Subjects were tested using a repeated-measures, Latin square design with 2-3 days wash-out between treatment cycles.
On scheduled test days, animals were monitored remotely via video camera during the feeding access period. The occurrence of four mutually exclusive behaviors (eating/drinking, grooming, active, rest) were individually scored. Over the 2 h feeding period, behaviors were assessed every 30 seconds. Scores were compiled into 23 5 min timebins (timebin 24 was removed due to early removal of animals) and the frequency of each behavior within each timebin was calculated to determine a temporal frequency of each measure (Rodgers et al, 2010, Pharmacology Biochemistry and Behaviour. 97: 3-14). Percentage time was plotted for each behavioral sequence in each timebin to compare between treatment groups (Higgins et al, 2011, Neuropsychopharmacology. 37(5): 1177-1191).

[1] = 0.1 mg/kg, raw score per animal LT-1 to LT-12
[2] = 0.3 mg/kg, raw score per animal LT-1 to LT-12

Clc1ccc(C2(OCC3OCCO3)c3ccccc3C3=NCCN32)cc1 (stereo not drawn) [Compound I-19]
BSS scoring A (active), Time Bin 13 (60-65 TOTAL), AVG (0.1 mg/kg): 0.20
BSS scoring A (active), Time Bin 14 (65-70 TOTAL), AVG (0.1 mg/kg): 0.10
BSS scoring A (active), Time Bin 15 (70-75 TOTAL), AVG (0.1 mg/kg): 0.13
BSS scoring A (active), Time Bin 16 (75-80 TOTAL), AVG (0.1 mg/kg): 0.23
BSS scoring A (active), Time Bin 17 (80-85 TOTAL), AVG (0.1 mg/kg): 0.36
BSS scoring A (active), Time Bin 18 (85-90 TOTAL), AVG (0.1 mg/kg): 0.22
BSS scoring E (eating/drinking), Time Bin 13 (60-65 TOTAL), AVG (0.1 mg/kg): 0.74
BSS scoring E (eating/drinking), Time Bin 14 (65-70 TOTAL), AVG (0.1 mg/kg): 0.83
BSS scoring E (eating/drinking), Time Bin 15 (70-75 TOTAL), AVG (0.1 mg/kg): 0.83
BSS scoring E (eating/drinking), Time Bin 16 (75-80 TOTAL), AVG (0.1 mg/kg): 0.63
BSS scoring E (eating/drinking), Time Bin 17 (80-85 TOTAL), AVG (0.1 mg/kg): 0.58
BSS scoring E (eating/drinking), Time Bin 18 (85-90 TOTAL), AVG (0.1 mg/kg): 0.71
BSS scoring G (grooming), Time Bin 13 (60-65 TOTAL), AVG (0.1 mg/kg): 0.03
BSS scoring G (grooming), Time Bin 14 (65-70 TOTAL), AVG (0.1 mg/kg): 0.05
BSS scoring G (grooming), Time Bin 15 (70-75 TOTAL), AVG (0.1 mg/kg): 0.01
BSS scoring G (grooming), Time Bin 16 (75-80 TOTAL), AVG (0.1 mg/kg): 0.05
BSS scoring G (grooming), Time Bin 17 (80-85 TOTAL), AVG (0.1 mg/kg): 0.05
BSS scoring G (grooming), Time Bin 18 (85-90 TOTAL), AVG (0.1 mg/kg): 0.02
BSS scoring R (resting), Time Bin 13 (60-65 TOTAL), AVG (0.1 mg/kg): 0.03
BSS scoring R (resting), Time Bin 14 (65-70 TOTAL), AVG (0.1 mg/kg): 0.02
BSS scoring R (resting), Time Bin 15 (70-75 TOTAL), AVG (0.1 mg/kg): 0.03
BSS scoring R (resting), Time Bin 16 (75-80 TOTAL), AVG (0.1 mg/kg): 0.08
BSS scoring R (resting), Time Bin 17 (80-85 TOTAL), AVG (0.1 mg/kg): 0.02
BSS scoring R (resting), Time Bin 18 (85-90 TOTAL), AVG (0.1 mg/kg): 0.06
BSS scoring A (active), Time Bin 13 (60-65 TOTAL) [1]: 0 (5×) and 4 (2×) and 5 and 1 (3×) and 8
BSS scoring A (active), Time Bin 14 (65-70 TOTAL) [1]: 0 (6×) and 1 (2×) and 4 and 2 (3×)
BSS scoring A (active), Time Bin 15 (70-75 TOTAL) [1]: 5 and 3 (3×) and 0 (7×) and 2
BSS scoring A (active), Time Bin 16 (75-80 TOTAL) [1]: 4 (3×) and 3 and 5 (2×) and 0 (4×) and 2 and 1
BSS scoring A (active), Time Bin 17 (80-85 TOTAL) [1]: 0 (3×) and 3 and 9 (2×) and 1 and 6 and 5 and 4 (2×) and 2
BSS scoring A (active), Time Bin 18 (85-90 TOTAL) [1]: 0 (4×) and 1 (2×) and 7 and 3 and 5 (2×) and 2 (2×)
BSS scoring E (eating/drinking), Time Bin 13 (60-65 TOTAL) [1]: 8 (4×) and 5 (2×) and 6 and 10 (3×) and 9 and 2
BSS scoring E (eating/drinking), Time Bin 14 (65-70 TOTAL) [1]: 10 (3×) and 8 (3×) and 9 (3×) and 5 and 7 (2×)
BSS scoring E (eating/drinking), Time Bin 15 (70-75 TOTAL) [1]: 5 and 7 (2×) and 10 (4×) and 9 (3×) and 6 and 8
BSS scoring E (eating/drinking), Time Bin 16 (75-80 TOTAL) [1]: 6 (3×) and 3 (3×) and 10 and 9 (2×) and 8 (2×) and 4
BSS scoring E (eating/drinking), Time Bin 17 (80-85 TOTAL) [1]: 10 (2×) and 7 and 0 and 9 (2×) and 3 and 4 and 5 (2×) and 6 and 2
BSS scoring E (eating/drinking), Time Bin 18 (85-90 TOTAL) [1]: 10 (4×) and 8 (2×) and 7 (3×) and 0 and 5 and 3
BSS scoring G (grooming), Time Bin 13 (60-65 TOTAL) [1]: 0 (9×) and 1 (3×)
BSS scoring G (grooming), Time Bin 14 (65-70 TOTAL) [1]: 0 (6×) and 1 (6×)
BSS scoring G (grooming), Time Bin 15 (70-75 TOTAL) [1]: 0 (11×) and 1
BSS scoring G (grooming), Time Bin 16 (75-80 TOTAL) [1]: 0 (9×) and 4 and 1 (2×)
BSS scoring G (grooming), Time Bin 17 (80-85 TOTAL) [1]: 0 (7×) and 1 (4×) and 2
BSS scoring G (grooming), Time Bin 18 (85-90 TOTAL) [1]: 0 (10×) and 1 (2×)
BSS scoring R (resting), Time Bin 13 (60-65 TOTAL) [1]: 2 and 0 (9×) and 1 (2×)
BSS scoring R (resting), Time Bin 14 (65-70 TOTAL) [1]: 0 (10×) and 1 (2×)
BSS scoring R (resting), Time Bin 15 (70-75 TOTAL) [1]: 0 (9×) and 1 (3×)
BSS scoring R (resting), Time Bin 16 (75-80 TOTAL) [1]: 0 (5×) and 2 and 3 and 1 (5×)
BSS scoring R (resting), Time Bin 17 (80-85 TOTAL) [1]: 0 (10×) and 1 (2×)
BSS scoring R (resting), Time Bin 18 (85-90 TOTAL) [1]: 0 (7×) and 1 (4×) and 3
BSS scoring A (active), Time Bin 13 (60-65 TOTAL), AVG (0.3 mg/kg): 0.09
BSS scoring A (active), Time Bin 14 (65-70 TOTAL), AVG (0.3 mg/kg): 0.13
BSS scoring A (active), Time Bin 15 (70-75 TOTAL), AVG (0.3 mg/kg): 0.32
BSS scoring A (active), Time Bin 16 (75-80 TOTAL), AVG (0.3 mg/kg): 0.13
BSS scoring A (active), Time Bin 17 (80-85 TOTAL), AVG (0.3 mg/kg): 0.17
BSS scoring A (active), Time Bin 18 (85-90 TOTAL), AVG (0.3 mg/kg): 0.23
BSS scoring E (eating/drinking), Time Bin 13 (60-65 TOTAL), AVG (0.3 mg/kg): 0.81
BSS scoring E (eating/drinking), Time Bin 14 (65-70 TOTAL), AVG (0.3 mg/kg): 0.80
BSS scoring E (eating/drinking), Time Bin 15 (70-75 TOTAL), AVG (0.3 mg/kg): 0.56
BSS scoring E (eating/drinking), Time Bin 16 (75-80 TOTAL), AVG (0.3 mg/kg): 0.79
BSS scoring E (eating/drinking), Time Bin 17 (80-85 TOTAL), AVG (0.3 mg/kg): 0.69
BSS scoring E (eating/drinking), Time Bin 18 (85-90 TOTAL), AVG (0.3 mg/kg): 0.62
BSS scoring G (grooming), Time Bin 13 (60-65 TOTAL), AVG (0.3 mg/kg): 0.03
BSS scoring G (grooming), Time Bin 14 (65-70 TOTAL), AVG (0.3 mg/kg): 0.03
BSS scoring G (grooming), Time Bin 15 (70-75 TOTAL), AVG (0.3 mg/kg): 0.04
BSS scoring G (grooming), Time Bin 16 (75-80 TOTAL), AVG (0.3 mg/kg): 0.01
BSS scoring G (grooming), Time Bin 17 (80-85 TOTAL), AVG (0.3 mg/kg): 0.05
BSS scoring G (grooming), Time Bin 18 (85-90 TOTAL), AVG (0.3 mg/kg): 0.10
BSS scoring R (resting), Time Bin 13 (60-65 TOTAL), AVG (0.3 mg/kg): 0.07
BSS scoring R (resting), Time Bin 14 (65-70 TOTAL), AVG (0.3 mg/kg): 0.05
BSS scoring R (resting), Time Bin 15 (70-75 TOTAL), AVG (0.3 mg/kg): 0.08
BSS scoring R (resting), Time Bin 16 (75-80 TOTAL), AVG (0.3 mg/kg): 0.08
BSS scoring R (resting), Time Bin 17 (80-85 TOTAL), AVG (0.3 mg/kg): 0.09
BSS scoring R (resting), Time Bin 18 (85-90 TOTAL), AVG (0.3 mg/kg): 0.06
BSS scoring A (active), Time Bin 13 (60-65 TOTAL) [2]: 0 (7×) and 2 and 3 and 1 (2×) and 4
BSS scoring A (active), Time Bin 14 (65-70 TOTAL) [2]: 1 (4×) and 3 and 0 (6×) and 8
BSS scoring A (active), Time Bin 15 (70-75 TOTAL) [2]: 0 (2×) and 4 (2×) and 6 and 8 and 1 (2×) and 3 (3×) and 5

— patent US20250108038A1 (priority 2023, published 2025)
